Inconclusive results are not listed. Activity calls are given as the source filed them. No rule for the calls is given here.
Columns and labels:
[1] = dynein cargo transport inhibitors, potency, dose response, imaging, high-content imaging (AID 463136); details: HCS imaging, dynein-mediated cargo transport inhibition; inhibition at max concentration; at 50 µM; stronger effect = higher value;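 also: mouse mammary adenocarcinoma 3617.4 cells expressing GFP-tagged rat glucocorticoid receptor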; as to inhibition: reference of the scale not given here
[2] = test system: HCS imaging, dynein-mediated cargo transport inhibition; assay: as above

SMILES | inhibition [1] [%] | IC50 [2]
CC(C)c1ccc(CN2CCN(C(=O)CCl)CC2)cc1 | 89.6 | 7.94 µM
O=C1C(Cl)=C(N2CCCCC2)C(=O)C(Cl)=C1c1cnc(N2CCCCC2)s1 | 94.6 | 33.2 µM
O=C(CCl)N(Cc1cccc([N+](=O)[O-])c1)c1cccc(Cl)c1 | 75 | 12.2 µM
BrC(=C\c1ccccc1)/C=N/n1cnnc1 | 90.7 | 18.4 µM
Nc1cccc2c1C(=O)N(C(=O)/C=C/c1cccc(F)c1)C2=O | 14.3 | > 50 µM (inactive)
N#CC12COC3(CCCCC3C1(C#N)C#N)OC2=N (stereo not given) | 8.2 | > 50 µM (inactive)
O=C1/C(=C/c2ccccc2[N+](=O)[O-])COc2ccccc21 | 39.6 | > 50 µM (inactive)
COc1ccc(-c2csc3nc(-c4ccccc4F)oc(=O)c23)cc1OC | 20.3 | > 50 µM (inactive)
N#C/C(=C/c1ccc(N2CCCCCC2)o1)c1ccc(Cl)cc1 | 23.1 | > 50 µM (inactive)
N#CC(C#N)=C1C=CC=CN1/C(=C\c1ccco1)C(=O)c1ccc(Br)cc1 | 33.6 | > 50 µM (inactive)
Cc1cc(C)nc(S/C=C/C(=O)c2ccccc2F)n1 | 83.3 | 19.3 µM
CCN1C/C(=C/c2cccc([N+](=O)[O-])c2)C(=O)/C(=C/c2cccc([N+](=O)[O-])c2)C1 | 84.7 | 22.6 µM
O=C1NC(=O)N(Cc2ccc(F)cc2)C(=O)/C1=C\C=C\c1ccco1 | 74.8 | 30.9 µM
CCN(CC)c1ccc(/C=N/c2sc3c(c2C#N)C2CCN3CC2)c(O)c1 | 82.6 | 38 µM
COc1ccc(-n2ncc(Cl)c(Cl)c2=O)cc1 | 84.7 | 21.6 µM
CNC(=O)c1nnsc1S(=O)c1ccc(Cl)cc1 (stereo not given) | 74.6 | 7.18 µM
COC(=O)c1cc(=O)n(Cc2ccc3c(c2)OCO3)c(=Nc2ccc(F)c(Cl)c2)s1 | 8.81 | > 50 µM (inactive)
O=C1NC(=O)N(c2ccccc2)C(=O)/C1=C\C=C\c1ccccc1 | 80.9 | 28.8 µM
CC(=O)c1sc2nc(-c3cccs3)cc(C(F)(F)F)c2c1N | 86 | 21.6 µM
COc1ccc(-n2c(C)cc(C(=O)CCl)c2C)cc1 | 80.4 | 13.1 µM
Cc1cc(Cl)n2c(nc3cc(F)c(F)cc32)c1C#N | 36.6 | 25.5 µM

SMILES | inhibition [1] [%] | IC50 [2]
CC(=O)Oc1ccc(OC(C)=O)c(SCCCCCCl)c1 | 83.5 | 17.6 µM
CC(C)CC(=O)/C=C/n1c(=S)oc2ccccc21 | 24.5 | > 50 µM (inactive)
O=c1c(Cl)c(Cl)cnn1Cc1ccc(F)cc1 | 80.4 | 10.3 µM
N#Cc1ccccc1Cn1cc(/C=C/[N+](=O)[O-])c2ccccc21 | 83.6 | 34.6 µM
Cc1ccc(N2C(=O)NC(=O)/C(=C\C=C\c3ccco3)C2=O)cc1 | 108 | 27.7 µM
Nc1c(C(=O)c2cccs2)sc2nsc(SCCN3CCCCC3)c12 | 11.4 | > 50 µM (inactive)
CN(Cc1ccc(Cl)s1)C(=O)CCl | 75.8 | 8.74 µM
CCCCc1c(C)c(C#N)c2nc3ccccc3n2c1Cl | -60.6 | > 50 µM (inactive)
C=CCn1c(Sc2ncc([N+](=O)[O-])s2)n[nH]c1=O | 62.3 | 20 µM
CN1C(=O)NC(=O)/C(=C/c2ccc([N+](=O)[O-])s2)C1=O | 84.7 | 12 µM
CCCCc1ccc(/C=C2\C(=O)c3ccccc3C(O)=C2C(=O)OCC)cc1 | 15.5 | > 50 µM (inactive)
O=C(NCc1cccnc1)/C(=C/c1ccc(-c2cccc(Cl)c2)o1)S(=O)(=O)c1ccccc1 | 42 | > 50 µM (inactive)
CC1C/C(=C/c2ccco2)C(=O)/C(=C/c2ccco2)C1 (stereo not given) | 64.1 | 39.2 µM
Cc1ccc(-n2nnnc2Sc2ccc(S(=O)(=O)NCCN(C)C)cc2[N+](=O)[O-])cc1 | 86.3 | 11.9 µM
O=[N+]([O-])c1ccc(C2=NN(c3ccccc3)C(c3ccco3)C2)cc1 (stereo not given) | – | 32.3 µM
N#C/C(=C\c1cccs1)C(=O)c1ccccc1Cl | 63.4 | > 50 µM (inactive)
COc1ccc(OC)c(CCNC(=O)Cn2sc3nc(C)cc(C)c3c2=O)c1 | 93.6 | 29.1 µM
Cn1cc([N+](=O)[O-])c(C(=O)Nc2cc(Oc3ccccc3)cc([N+](=O)[O-])c2)n1 | 45.9 | > 50 µM (inactive)
Nc1c(C(=O)C2CC2)sc2nc(-c3cccs3)cc(C(F)(F)F)c12 | 66.4 | 38.7 µM
CC(C)N1C/C(=C/c2ccsc2)C(=O)/C(=C/c2ccsc2)C1 | 69.2 | 40.1 µM
N#CC(C#N)=C1C=C2C=C(N3CCOCC3)CCC2CC1 (stereo not given) | 99 | 42.8 µM

SMILES | inhibition [1] [%] | IC50 [2]
CC(=O)n1cc(N(C(=O)CCl)c2ccc(C)cc2)c2ccccc21 | 68.7 | 16.8 µM
N#C/C(=C/c1ccc(N2CCCCC2)o1)C(=O)Nc1ccc2ccccc2c1 | 98.5 | 27.4 µM
CCC(=O)Nc1cccc(C(=O)/C=C/c2ccc(F)cc2)c1 | 74.9 | 34.1 µM
Nc1cccc2c1C(=O)N(C(=O)/C=C/c1ccc(F)cc1)C2=O | 37.6 | > 50 µM (inactive)
COC/C=C/C1=CC2=CC(=O)C(C)(OC(=O)c3cnc4ccccc4n3)C(=O)C2=CN1Cc1ccc(OC)cc1 (stereo not given) | 89.5 | 15 µM
C#CC(=O)N(c1cccc(OC)c1)C(C(=O)NC1CCCC1)c1cccs1 (stereo not given) | 16.5 | > 50 µM (inactive)
O=C(/C(=C/c1ccc(Cl)cc1)c1nc2ccccc2[nH]1)c1cccs1 | 81.7 | 24.9 µM
N/C(=C\C(=O)c1cc(Cl)ccc1O)C(Cl)(Cl)Cl | 76.1 | 33 µM
CC(=O)Nc1sc(/C(C#N)=C/c2ccc(Cl)c(Cl)c2)nc1-c1ccc(C)cc1 | 102 | 0.491 µM
CCOc1ccc(CN(C)C(=O)CCl)cc1 | 85.8 | 10.2 µM
O=C(c1nnsc1S(=O)c1ccc(Cl)cc1)N1CCOCC1 (stereo not given) | 76.9 | 2.18 µM
Cc1cccc(Cn2ncc(Cl)c(Cl)c2=O)c1 | 84.7 | 13 µM
N#CC1=C(N)OC2=C(CC/C2=C\c2ccccc2)C1c1ccccc1 (stereo not given) | 75.8 | 11.1 µM
COc1ccc(C(CCN(Cc2ccc(OC)c(OC)c2)C(=O)CCl)c2ccccc2)cc1 (stereo not given) | 70.4 | 37 µM
O=C1/C(=C/c2ccc(N3CCOCC3)o2)SC(=Nc2ccccc2)N1CCc1c[nH]c2ccccc12 | 95.6 | 1.2 µM
COC(=O)c1cc(=O)n(Cc2ccc(F)cc2)c(=Nc2ccccc2)s1 | 15.5 | > 50 µM (inactive)
CCOc1cc(C=C(C(=O)OC)C(=O)OC)ccc1OCc1ccc([N+](=O)[O-])cc1 | 37.2 | > 50 µM (inactive)
COc1cccc(N(C(=O)CCl)C(C(=O)NCCc2ccccc2)c2cccs2)c1 (stereo not given) | 85.4 | 27.1 µM
Cc1cccc2cc3c(N)c(C(=O)N4CCc5ccccc54)sc3nc12 | – | 5.15 µM
